Assay in all cases: NCI anticancer screen, dose series, 48 h
For test [1], the system named is NCI-H23 lung.
Test [2] relates to LOX IMVI melanoma.
Test [3] relates to NCI-H460 lung.
The test system of test [4] is CAKI-1 renal.
The subject of test [5] is U251 CNS.
Test [6] concerns OVCAR-4 ovarian.
Test [7] has as its system SK-MEL-5 melanoma.
Test [8] concerns SF-539 CNS.
Test [9] has as its system CCRF-CEM leukemia.
For test [10], the system named is MOLT-4 leukemia.

SMILES strings stand for the structures. Values joined by “and” are separate entries in the source; they are usually repeats but may differ in a detail not shown here. Equal values may be shown once.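 Results reflect a 48-hour exposure of cells in 96-well plates to compound at five concentrations. Abbreviation: GI50, concentration required for 50% inhibition of growth. TGI: total growth inhibition.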

Consider `Cc1c(C)c2c(c(C)c1OCC(=O)O)CC[C@@](C)(CCC[C@@H](C)CCC[C@@H](C)CCCC(C)C)O2`, for which the GI50 in test [1] was 75.7 µM; in [2], 78.7 µM; in [3], 55.3 µM; in test [4] it was 76.7 µM; in [5], 52.7 µM; in test [6], 59.6 µM. Also, the GI50 in test [7] was 58 µM; in [8], 78.1 µM; in [9] it was 27.1 µM; in test [10], 50.4 µM. Besides, the TGI stood at 200 µM in [1]; 216 µM in test [2]; 168 µM in test [3]; 151 µM in test [4]; 133 µM in test [5]; 136 µM in test [6]. Besides, the TGI in test [7] worked out at 122 µM; in test [8], 153 µM; in test [9] it was 189 µM; in test [10] it was 202 µM.

For `CCN(CC)c1ccc(/C=N/NC(=O)CSc2nc3ccccc3c(=O)n2Cc2ccc(S(N)(=O)=O)cc2)c(O)c1`, the GI50 is 1.96 µM in test [1]; 0.387 µM in test [2]; 0.425 µM in test [3]; 1.02 µM in test [4]; 0.51 µM in test [5]; 0.311 µM in test [6]. The GI50 in test [7] was 1.57 µM; in [8], 1.26 µM; in test [9], 0.196 µM; in [10] it was 0.372 µM. Besides, the TGI was > 100 µM in [1]; 10.5 µM in test [2]; > 100 µM in test [3]; > 100 µM in [4]; > 100 µM in test [5]; > 100 µM in [6]. Further, the TGI is 4.97 µM in test [7], > 100 µM in [8], > 100 µM in test [9] and > 100 µM in test [10].

With `CC1(C)C(=O)C(=Cc2ccco2)C1=O`, the TGI in test [1], in test [2], in test [3], in test [4], in [5] and in test [6] was > 100 µM throughout. In addition, the TGI in test [7], in test [8], in test [9] and in [10] was > 100 µM each time.

Take `CN(C)CCCCCNc1c2ccccc2nc2cccc([N+](=O)[O-])c12`: the GI50 in [1] was 0.00162 µM; in test [3] it was 0.00145 µM; in test [5], 0.0065 µM; in [6], 0.00339 µM; in test [7] it was 0.00693 µM; in test [10] it was 0.00627 µM. In addition, the TGI in [1] was 0.00344 µM and 0.00234 µM; in test [2], 0.0113 µM; in test [4] it was 0.0158 µM; in test [5] it was 0.0251 µM; in test [6] it was 0.00236 µM; in test [7], 0.00335 µM. Further, the TGI was 0.00979 µM and 0.0157 µM in [8]; > 0.1 µM and 0.0102 µM in test [9]; > 0.1 µM in [10].

As for `COC(=O)CC(=O)NCC1=CCC(=O)CC1`, the TGI in test [1], in test [2], in [3], in [4], in test [5] and in [6] was > 100 µM in each case. For the same compound, the TGI in [7], in test [8], in test [9] and in [10] was > 100 µM in each case.

As to `COc1cc2c(c(OC)c1OC)-c1ccc(SC)c(=O)cc1C(CC(=O)Oc1cccc(F)c1)C2` (stereo unspecified), the TGI in test [1] was 0.805 µM; in test [2] it was 10.8 µM; in [3], 4.62 µM; in test [4] it was > 73.7 µM; in test [5] it was 0.85 µM; in [6], > 100 µM. Moreover, the TGI was > 55.8 µM in [7], 0.387 µM in test [8], > 31.9 µM in [9] and > 55.2 µM in test [10].

For `CCC(=O)C(C(=O)CC)c1c(OC(=O)c2ccccc2)ccc(O)c1C(=O)OC`, the TGI in test [1], in [2], in test [3], in test [4], in test [5] and in [6] was > 100 µM each time. Besides, the TGI in test [7], in [8], in test [9] and in test [10] was > 100 µM in each case.

With `CC[C@@H](O)C[C@H]1CCC[C@@]2(C[C@@H]3OC(=O)/C=C/[C@@](C)(O)[C@@H](O)[C@H](C)[C@@H](O)[C@H](OC4CCC(N(C)C)C(C)O4)[C@@H](O)[C@](C)(O)CCCCC/C=C/[C@@H]4CC(C)(C)O[C@@]4(O)C[C@H](O2)[C@H]3C)O1` (stereo partly specified), the TGI in test [1] worked out at 18.2 µM; in test [2] it was 9.46 µM; in test [3], 46.8 µM; in test [4], 20.2 µM; in test [5], 36.8 µM; in test [6], 25.7 µM. The TGI in [7] is 2.04 µM; in [8], 23.3 µM; in test [9] it was > 100 µM; in test [10], 23.3 µM.

`C=C1C(=O)O[C@H]2[C@H]1CC/C(COC(=O)NCCc1cccc(OC)c1)=C\CC[C@@]1(C)O[C@@H]21`: the GI50 in [1] was 1.86 µM; in [2], 1.34 µM; in test [3], 3.94 µM; in test [4], 1.19 µM; in [6], 1.78 µM; in test [7] it was 1.84 µM. Moreover, the GI50 in test [8] was 1.49 µM; in [9], 0.34 µM; in test [10] it was 2.09 µM. Moreover, the TGI was 4.33 µM in test [1]; 2.81 µM in [2]; 16.6 µM in test [3]; 2.52 µM in test [4]; 4.37 µM in test [6]; 3.57 µM in test [7]. Further, the TGI stood at 2.96 µM in test [8], 1.93 µM in test [9] and 5 µM in [10].

Consider `COC(=O)N/N=C(\C)C(CN(C)C)C(c1ccccc1)c1c(O)c2ccccc2oc1=O` (stereo unspecified), for which the TGI in test [1], in test [2], in test [4], in test [5], in test [6] and in test [7] was > 100 µM in each case. Moreover, the TGI in test [8], in test [9] and in test [10] was > 100 µM throughout.

Regarding `NC(=S)N/N=C1/CN(c2ccc(Cl)c(Cl)c2)CC(=O)C1c1nc2ccccc2s1` (stereo unspecified), the TGI in test [1], in test [2], in test [3], in [4], in [5] and in test [6] was > 100 µM in each case. For the same compound, the TGI in test [7], in [8] and in test [9] was > 100 µM throughout.

Source of the values: PubChem BioAssay (NCI).
